Measured values: publication PMC10541190 (The Journal of Clinical Investigation, 2023)
pEC50: −log10 of the molar value. Where “and” joins values, the source holds several entries; their conditions need not be identical. Equal entries are not always repeated. Where two headings read alike, the source gives them in different places.

Assays:
SARS-CoV-2 [1] = type: cell-based
[2] = human, in vivo; cited from earlier work
Calu-3 cells = conditions: human, 1.25 µM
rVSV-SARS-CoV-2-S [3] = test: microbe, parasite or virus in culture; type: cell-based
ACE2 = type: cell-based, human
[4] = tested on: SARS-CoV-2 (USA-WA1/2020); type: cell-based
EBOV (Kikwit isolate) = test: microbe, parasite or virus in culture; type: cell-based; conditions: Zaire ebolavirus, Huh-7, read-out: EC50, EBOV replication
[5] = tested on: claudin-7 tight junctions; type: cell-based, human
ErbB4 [6] = molecular target: ErbB4 (Homo sapiens, UniProt Q15303); test: biochemical; conditions: read-out: ErbB4 activity (%)
Chain of ErbB4 (Homo sapiens, UniProt Q15303) (Q15303 26-1308): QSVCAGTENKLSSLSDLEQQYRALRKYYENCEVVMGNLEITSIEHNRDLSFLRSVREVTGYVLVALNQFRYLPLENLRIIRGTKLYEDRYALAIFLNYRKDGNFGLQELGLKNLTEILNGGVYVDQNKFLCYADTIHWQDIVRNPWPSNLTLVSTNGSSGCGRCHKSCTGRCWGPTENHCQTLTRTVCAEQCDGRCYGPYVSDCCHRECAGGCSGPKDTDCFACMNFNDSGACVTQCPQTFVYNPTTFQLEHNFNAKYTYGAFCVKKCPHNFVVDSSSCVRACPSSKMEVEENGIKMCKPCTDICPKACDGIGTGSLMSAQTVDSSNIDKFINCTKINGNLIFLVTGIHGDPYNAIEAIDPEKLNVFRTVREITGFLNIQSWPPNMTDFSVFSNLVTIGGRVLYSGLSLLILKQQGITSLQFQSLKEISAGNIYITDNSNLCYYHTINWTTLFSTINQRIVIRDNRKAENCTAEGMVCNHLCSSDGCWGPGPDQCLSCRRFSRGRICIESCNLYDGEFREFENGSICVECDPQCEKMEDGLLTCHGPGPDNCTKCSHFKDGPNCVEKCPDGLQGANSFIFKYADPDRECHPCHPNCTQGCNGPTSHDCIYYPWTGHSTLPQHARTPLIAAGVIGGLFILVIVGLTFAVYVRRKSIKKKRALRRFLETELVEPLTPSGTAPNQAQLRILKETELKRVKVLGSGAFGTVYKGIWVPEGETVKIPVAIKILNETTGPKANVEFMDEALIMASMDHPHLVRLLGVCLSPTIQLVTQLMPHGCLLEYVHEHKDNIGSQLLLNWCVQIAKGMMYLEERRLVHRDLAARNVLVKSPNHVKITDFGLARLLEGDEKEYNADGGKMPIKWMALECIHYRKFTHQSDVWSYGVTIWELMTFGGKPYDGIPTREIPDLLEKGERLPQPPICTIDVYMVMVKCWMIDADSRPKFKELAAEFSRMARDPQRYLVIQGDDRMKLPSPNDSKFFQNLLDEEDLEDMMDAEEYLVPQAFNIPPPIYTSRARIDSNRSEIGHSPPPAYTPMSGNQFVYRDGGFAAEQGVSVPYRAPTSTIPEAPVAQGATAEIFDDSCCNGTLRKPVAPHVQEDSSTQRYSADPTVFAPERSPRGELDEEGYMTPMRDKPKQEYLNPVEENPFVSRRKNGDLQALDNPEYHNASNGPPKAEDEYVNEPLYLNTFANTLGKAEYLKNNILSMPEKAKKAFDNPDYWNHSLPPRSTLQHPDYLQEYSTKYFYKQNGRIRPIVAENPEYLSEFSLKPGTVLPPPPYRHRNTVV

ErbB2 (HER2) = ErbB2 (HER2) (Homo sapiens, UniProt P04626); test: biochemical; conditions: read-out: ErbB2 activity (%)
Chain of ErbB2 (HER2) (P04626 23-1255): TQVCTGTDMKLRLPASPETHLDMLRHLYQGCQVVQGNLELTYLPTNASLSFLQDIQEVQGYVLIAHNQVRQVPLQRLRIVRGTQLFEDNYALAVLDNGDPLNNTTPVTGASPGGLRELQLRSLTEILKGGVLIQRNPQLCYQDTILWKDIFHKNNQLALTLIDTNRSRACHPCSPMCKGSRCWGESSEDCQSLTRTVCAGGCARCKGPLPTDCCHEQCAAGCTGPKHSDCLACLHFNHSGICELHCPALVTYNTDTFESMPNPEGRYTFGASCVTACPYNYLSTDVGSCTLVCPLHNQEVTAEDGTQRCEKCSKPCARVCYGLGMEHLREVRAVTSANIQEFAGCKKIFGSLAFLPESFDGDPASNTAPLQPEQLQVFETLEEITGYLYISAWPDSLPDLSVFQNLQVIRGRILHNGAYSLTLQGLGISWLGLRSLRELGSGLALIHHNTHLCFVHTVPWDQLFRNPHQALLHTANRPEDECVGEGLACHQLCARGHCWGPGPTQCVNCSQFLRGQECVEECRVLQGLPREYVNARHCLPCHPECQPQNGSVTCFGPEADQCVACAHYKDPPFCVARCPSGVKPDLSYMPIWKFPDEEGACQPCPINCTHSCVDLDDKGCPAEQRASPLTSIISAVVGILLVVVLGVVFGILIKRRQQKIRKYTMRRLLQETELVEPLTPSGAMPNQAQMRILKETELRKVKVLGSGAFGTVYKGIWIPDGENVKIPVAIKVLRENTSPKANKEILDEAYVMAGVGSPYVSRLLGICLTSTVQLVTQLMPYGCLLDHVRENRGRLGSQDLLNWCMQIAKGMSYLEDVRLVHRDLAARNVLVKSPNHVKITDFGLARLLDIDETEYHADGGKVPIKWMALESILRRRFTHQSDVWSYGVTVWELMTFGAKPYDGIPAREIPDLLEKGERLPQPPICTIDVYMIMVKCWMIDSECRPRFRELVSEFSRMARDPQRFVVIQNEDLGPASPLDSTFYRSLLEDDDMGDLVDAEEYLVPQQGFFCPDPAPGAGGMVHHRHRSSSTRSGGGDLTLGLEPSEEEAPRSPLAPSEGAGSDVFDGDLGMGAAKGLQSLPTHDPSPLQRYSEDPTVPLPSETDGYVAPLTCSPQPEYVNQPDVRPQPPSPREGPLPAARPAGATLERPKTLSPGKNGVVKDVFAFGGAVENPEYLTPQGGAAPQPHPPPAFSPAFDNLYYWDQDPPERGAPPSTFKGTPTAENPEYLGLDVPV

AKT, ERK, and p38 MAPK = type: cell-based, human
in vitro [7] = conditions: African green monkey
Vero cells = conditions: African green monkey
[8] = tested on: SARS-CoV-2 (Belgium-GHB-03021); type: cell-based
VEEV (TC-83) [9] = type: cell-based
VEEV (TrD) = test: microbe, parasite or virus in culture; type: cell-based; conditions: Venezuelan equine encephalitis virus, U-87 MG, read-out: EC50, VEEV (TrD) infection
RIPK2 = conditions: cited from earlier work
ErbB1 = conditions: cited from earlier work
[10] = mouse, in vivo
[11] = tested on: SARS-CoV-2 (USA-WA1/2020); test: microbe, parasite or virus in culture; type: cell-based; conditions: Severe acute respiratory syndrome coronavirus 2, Calu-3, read-out: EC50, SARS-CoV-2 infection
MARV (Ci67 strain) = test: organism not typed; type: cell-based; conditions: Huh-7, read-out: EC50, MARV replication
[12] = tested on: IL-2, IL-12p70, IL-13, IL-6, IFN-γ, IL-10; type: cell-based, human
SARS-CoV-2 [13] = type: cell-based; remark: listed apart in the source
RAF1 = conditions: cited from earlier work
[14] = tested on: SARS-CoV-2 (USA-WA1/2020); test: microbe, parasite or virus in culture; type: cell-based; conditions: Severe acute respiratory syndrome coronavirus 2, read-out: EC50, viral replication by plaque assay
rVSV-SARS-CoV-2-S [15] = test: microbe, parasite or virus in culture; type: cell-based; conditions: Severe acute respiratory syndrome coronavirus 2, Vero, read-out: EC50, rVSV-SARS-CoV-2-S infection
DENV2 = test: microbe, parasite or virus in culture; type: cell-based; conditions: Dengue virus, DENV2, Huh-7, read-out: EC50, DENV2 replication
Huh7 cells = conditions: human
VEEV (TC-83) [16] = conditions: mouse, in vivo
in vitro [17] = conditions: human, Huh7 cell viability (%)
ErbB2 = ErbB2 (Homo sapiens, UniProt P04626); type: cell-based
Chain of ErbB2 (P04626 23-1255): as above

MAP2K5 = conditions: cited from earlier work
ErbB4 [18] = type: cell-based
[19] = tested on: MPOXV 2003 and MPOXV 2022; test: microbe, parasite or virus in culture; type: cell-based; conditions: Monkeypox virus, A549, read-out: EC50, monkeypox replication
STK10 = conditions: cited from earlier work
SLK = conditions: cited from earlier work

Compound: CS(=O)(=O)CCNCc1ccc(-c2ccc3ncnc(Nc4ccc(OCc5cccc(F)c5)c(Cl)c4)c3c2)o1 [Lapatinib]
- suppression of viral infection (SARS-CoV-2 [1]): 98% and 75% and 99% and 84% and 57%
- estimated incidence of pneumonitis, interstitial lung disease or lung fibrosis [2]: 0.2%
- Calu-3 cell viability (%) (Calu-3 cells): 85.68%
- pEC50 (rVSV-SARS-CoV-2-S [3]; Severe acute respiratory syndrome coronavirus 2, Calu-3, read-out: EC50, rVSV-SARS-CoV-2-S infection): 5.49 to 5.59
- pEC50 (rVSV-SARS-CoV-2-S [3]; read-out: EC50, rVSV-SARS-CoV-2-S infection): 5.59
- cell surface level of ACE2 in infected cells (ACE2): reversed the effect of SARS-CoV-2 infection
- SARS-CoV-2 nucleocapsid staining (confocal IF) [4]: near-complete disappearance
- pEC50 (EBOV (Kikwit isolate)): 5.60
- claudin-7 morphology and alveolar-like architecture [5]: intact claudin-7 morphology
- activity at 0.001 µM (ErbB4 [6]): 104%
- activity at 0.003 µM (ErbB4 [6]): 93.7%
- activity at 0.009 µM (ErbB4 [6]): 68.4%
- activity at 0.247 µM (ErbB4 [6]): 17.5%
- activity at 2.222 µM (ErbB4 [6]): 6.13%
- activity at 6.667 µM (ErbB4 [6]): 3.13%
- activity at 20 µM (ErbB4 [6]): 2.93%
- activity at […] (ErbB4 [6]): 31.2% and 54.5% and 8.67%
- activity at 0.001 µM (ErbB2 (HER2)): 91.6%
- activity at 0.003 µM (ErbB2 (HER2)): 84.5%
- activity at 0.009 µM (ErbB2 (HER2)): 64%
- activity at 0.247 µM (ErbB2 (HER2)): 14%
- activity at 2.222 µM (ErbB2 (HER2)): 3.4%
- activity at 6.667 µM (ErbB2 (HER2)): 2.28%
- activity at 20 µM (ErbB2 (HER2)): 2%
- activity at […] (ErbB2 (HER2)): 27.2% and 45.3% and 6.63%
- SARS-CoV-2-induced activation of AKT and ERK (1.5 and 24 hpi) and p38 MAPK (24 hpi) (AKT, ERK, and p38 MAPK): dramatically inhibited
- CC50 (in vitro [7]): > 20000 nM
- viability at 6.67 µM (in vitro [7]; Cell viability (%)): 86.8%
- viability at 20 µM (in vitro [7]; Cell viability (%)): 64%
- viability at 20 µM (in vitro [7]; Vero cell viability (%)): 85%
- CC50 (Vero cells): > 20000 nM
- rescue of Vero-eGFP cells from SARS-CoV-2-induced lethality, dose response [8]: dose-dependent rescue
- replication of TC-83 (VEEV (TC-83) [9]): dose-dependently inhibited replication
- pEC50 (VEEV (TrD)): 6.05
- Other targets: RIPK2 (% of control) (RIPK2): RAF1 (0%), STK10 (1.4%), RIPK2 (6.1%), MAP2K5 (12%), SLK (18%)
- % of control, ErbB1 (ErbB1): 5.3 nM 0%
- tolerability [10]: good tolerability
- pEC50 [11]: 6.15
- pEC50 (MARV (Ci67 strain)): 5.70
- IFN-γ concentration [12]: 26.79 pg/mL and 38.39 pg/mL
- IL-1β concentration [12]: 11.89 pg/mL and 16.34 pg/mL
- IL-2 concentration [12]: 11.13 pg/mL and 12.03 pg/mL
- IL-4 concentration [12]: 7.10 pg/mL and 9.18 pg/mL
- IL-6 concentration [12]: 1072.19 pg/mL and 1729.84 pg/mL
- IL-8 concentration [12]: 2235.87 pg/mL and 2263.16 pg/mL
- IL-10 concentration [12]: 8.47 pg/mL and 10.43 pg/mL
- IL-12p70 concentration [12]: 18.48 pg/mL and 18.83 pg/mL
- IL-13 concentration [12]: 9.88 pg/mL and 8.83 pg/mL
- TNF-α concentration [12]: 22.84 pg/mL and 21.83 pg/mL
- production of IL-2, IL-12p70, IL-13 and IL-6 [12]: reduced the production
- mean Manders' coefficient, colocalization of nucleocapsid and Rab7 (SARS-CoV-2 [13]): 0.33
- number of nucleocapsid puncta per cell (SARS-CoV-2 [13]): significantly reduced
- Other targets: RAF1 (% of control) (RAF1): RAF1 (0%), STK10 (1.4%), RIPK2 (6.1%), MAP2K5 (12%), SLK (18%)
- pEC50 [14]: 6.40
- pEC50 (rVSV-SARS-CoV-2-S [15]): 5.49
- pEC50 (DENV2): 5.70
- Huh7 cell viability (%) (Huh7 cells; 1.111 µM): 102.98%
- Huh7 cell viability (%) (Huh7 cells; 10 µM): 86.28%
- mice protected (VEEV (TC-83) [16]): 60%
- mice protected by day 10 (VEEV (TC-83) [16]): 80%
- mice protected by day 14 (VEEV (TC-83) [16]): 40%
- toxicity of the dose in the VEEV model (VEEV (TC-83) [16]): nontoxic
- viability at 0.37 µM (in vitro [17]): 103%
- viability at 3.333 µM (in vitro [17]): 105%
- increase in cell surface level of ErbB2 (ErbB2): more than 2 fold
- Other targets: MAP2K5 (% of control) (MAP2K5): RAF1 (0%), STK10 (1.4%), RIPK2 (6.1%), MAP2K5 (12%), SLK (18%)
- antiviral effect on VEEV (TC-83) upon ectopic expression of WT ErbB4 (ErbB4 [18]): completely or partially reversed
- pEC50 [19]: 5.12 to 5.21
- Other targets: STK10 (% of control) (STK10): RAF1 (0%), STK10 (1.4%), RIPK2 (6.1%), MAP2K5 (12%), SLK (18%)
- Other targets: SLK (% of control) (SLK): RAF1 (0%), STK10 (1.4%), RIPK2 (6.1%), MAP2K5 (12%), SLK (18%)
